Assay results from patent US9399631B2, “Polyphenol proteasome inhibitors, synthesis, and methods of use” (UNIVERSITY OF SOUTH FLORIDA, priority 2003, dated 2016).

Experiments:
Type in all cases: cell-based, human
WI-38 cells = assay: Western blot of p27 in normal WI-38 fibroblasts; details: 25 μM, 36 hours
Procedure: Cell Culture, Cell Extract Preparation, and Western Blot Assay. Human leukemia Jurkat T and prostate cancer LNCaP cells were cultured in RPMI 1640 medium supplemented with 10% fetal calf serum, 100 units/ml of penicillin, and 100 μg/ml streptomycin. Human immortalized, non-transformed NK cells (YT cell line) (38) were cultured in RPMI 1640 supplemented with 1 mM MEM sodium pyruvate solution, 0.1 mM MEM non-essential amino acids solution, 10% fetal calf serum. 100 units/ml penicillin, and 100 μg/ml streptomycin. Normal (WI-38) and simian virus 40 (SV40)-transformed (VA-13) human fibroblasts were grown in Dulbecco's modified Eagle's medium supplemented with 10% fetal calf serum, 100 units/ml of penicillin and 100 μg/ml of streptomycin. All cells were maintained at 37° C. in a humidified incubator with an atmosphere of 5% CO2. A whole cell extract was prepared in accordance with An et al. (An, B. et al. Cell Death Differ, 1998, 5:1062-75). Briefly, cells were harvested, washed with PBS twice, and homogenized in a lysis buffer [50 mM Tris-HCl (pH 8.0), 5 mM EDTA, 150 mM NaCl, 0.5% NP-40, 0.5 mM phenylmethylsulfonyl fluoride, and 0.5 mM dithiothreitol] for 30 min at 4° C. […] The ratio of p27 or IκB-α to the corresponding actin was determined by scanning intensities of the protein bands. […]

MCF-7 cells = assay: Proteasome inhibition / p27 accumulation in MCF-7 cells
LNCaP cells = assay: Cell-free caspase-3 activity assay, LNCaP cells; details: 10 μM, normalized to 0 hours
Procedure: To examine whether (+)-EGCG could induce apoptosis only in LNCaP, but not DU-145, cells, both cell lines were treated with 10 μM (+)-EGCG for 0, 24, 48 or 72 hours, followed by performance of cell-free caspase-3 activity assay. Cells were harvested at each sequential time-point and activity was determined by incubating whole cell extracts with caspase-3 substrate and measuring free AMCs (FIG. 20C). All the time-points were normalized to 0 hours. (+)-EGCG activated caspase-3 in LNCaP cells in a time-dependent manner: by 2.5-, 3.5- and 6-fold at 24, 48 and 72 hours, respectively (FIG. 20C). In contrast, little caspase-3 activity was detected in (+)-EGCG-treated in DU145 cells: only ˜2-fold induction at 72 hours (FIG. 20C). In the same experiment, (−)-EGCG at 10 μM was used as a control. […] Therefore, the abilities of (+)-EGCG to activate apoptotic program in these prostate cancer cell lines are correlated well to their abilities to accumulate Bax protein levels to a critical high threshold (compare FIGS. 20C and 20D vs. 20B). Values are means of triplicate independent experiments and error bars denote standard deviations.

Row | SMILES | p27 levels (WI-38 cells) | inhibition of proteasome activity / accumulation of p27 (MCF-7 cells) | caspase-3 activation (LNCaP cells; 24 hours) | caspase-3 activation (LNCaP cells; 48 hours) | caspase-3 activation (LNCaP cells; 72 hours)
1 | O=C(N[C@@H]1Cc2c(O)cc(O)cc2O[C@@H]1c1cc(O)c(O)c(O)c1)c1cc(O)c(O)c(O)c1 [(−)-EGCG-amide, (−)-[2R,3R]-N-[5,7-Dihydroxy-2-(3,4,5-trihydroxyphenyl)-chroman-3-yl]-3,4,5-trihydroxybenzamide] | slightly increased | able to inhibit the proteasome activity |  |  | 
2 | O=C(OC1Cc2c(O)cc(O)cc2OC1c1cc(O)c(O)c(O)c1)c1cc(O)c(O)c(O)c1 (single isomer, unassigned; (+)) [(+)-EGCG] |  |  | 2.5 fold | 3.5 fold | 6 fold
